{"source": "ChEMBL document CHEMBL1201862", "about": "“PubChem BioAssay data set” (2004)", "target": "Envelope glycoprotein gp160 (Human immunodeficiency virus 1, UniProt Q6QLK5)", "sequence (Q6QLK5 whole entry, the tested form may be a part)": "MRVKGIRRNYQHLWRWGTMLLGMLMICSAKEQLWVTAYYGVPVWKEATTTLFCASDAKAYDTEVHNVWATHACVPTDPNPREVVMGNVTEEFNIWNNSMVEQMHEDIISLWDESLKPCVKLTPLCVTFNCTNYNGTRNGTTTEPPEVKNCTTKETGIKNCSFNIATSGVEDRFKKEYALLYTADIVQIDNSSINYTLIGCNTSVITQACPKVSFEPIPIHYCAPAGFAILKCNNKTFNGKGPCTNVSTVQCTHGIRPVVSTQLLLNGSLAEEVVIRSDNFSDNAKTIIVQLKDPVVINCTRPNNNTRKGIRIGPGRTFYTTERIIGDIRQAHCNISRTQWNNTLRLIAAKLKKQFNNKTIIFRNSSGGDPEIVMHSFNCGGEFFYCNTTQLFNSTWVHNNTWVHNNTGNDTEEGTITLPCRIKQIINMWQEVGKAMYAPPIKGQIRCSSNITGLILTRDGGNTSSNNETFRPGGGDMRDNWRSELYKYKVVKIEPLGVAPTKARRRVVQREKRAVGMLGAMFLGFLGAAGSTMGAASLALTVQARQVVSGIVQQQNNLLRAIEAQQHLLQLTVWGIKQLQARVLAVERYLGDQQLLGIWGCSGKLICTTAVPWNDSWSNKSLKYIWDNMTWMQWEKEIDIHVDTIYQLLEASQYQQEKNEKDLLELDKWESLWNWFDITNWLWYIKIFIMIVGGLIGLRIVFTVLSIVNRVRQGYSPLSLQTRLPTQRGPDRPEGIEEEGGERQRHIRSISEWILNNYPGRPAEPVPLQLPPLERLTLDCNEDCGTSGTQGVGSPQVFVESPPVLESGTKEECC", "assay": "inhibitors of HIV fusion peptide binding, primary screen, biochemical, uHTS, fluorescence dequenching (AID 1986)", "note": "Activity calls are given as the source filed them. Rule as the data show it: actives have a measured IC50 and inactives only a lower limit."}
{"compound": "NC(=O)Cn1cc(C=C2C(=O)NC(=O)NC2=O)c2ccccc21", "values": [{"measurement": "IC50", "result": "69.2 µM (active)"}]}
{"compound": "Cc1ccc(NC(=O)COc2cccc(/C=C3\\SC(=S)N(CCC(=O)O)C3=O)c2)cc1Cl", "values": [{"measurement": "IC50", "result": "12.2 µM (active)"}]}
